Experimental data published in patent US7326803B2, “Ligand inhibitors of the RAR receptors, process for preparing same and therapeutic/cosmetic applications thereof” (Galderma Research & Development, priority 2002, dated 2008).

Legend:
Assay type in all cases: cell-based
[1] = target: T1, RAR beta (Homo sapiens, UniProt P10826); experiment: Transactivation test (luciferase reporter, HeLa cells), RAR beta; conditions: HeLa stable transfectants; for Kd: Schild regression against reference agonist 4-[2-(5,5,8,8-tetramethyl-5,6,7,8-tetrahydro-2-naphthyl)propenyl]benzoic acid, read-out: RAR beta Kdapp; for IC50: reference ligand at the concentration that gives 80% activation
T1 sequence (P10826 183-417 limits assumed): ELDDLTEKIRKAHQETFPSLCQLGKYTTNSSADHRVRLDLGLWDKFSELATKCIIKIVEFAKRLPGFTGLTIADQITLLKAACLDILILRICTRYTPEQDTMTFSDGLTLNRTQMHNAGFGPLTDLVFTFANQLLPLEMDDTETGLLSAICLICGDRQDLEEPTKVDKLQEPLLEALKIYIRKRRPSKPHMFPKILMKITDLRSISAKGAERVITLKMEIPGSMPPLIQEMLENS
Description: (§1) The activation of receptors with an agonist (activator) in HeLa cells leads to the expression of a reporter gene, luciferase, which, in the presence of a substrate, generates light. The activation of the receptors may thus be measured by quantifying the luminescence produced after incubating the cells in the presence of a reference agonist. The inhibitory products displace the agonist from its site, thus preventing activation of the receptor. The activity is measured by quantifying the reduction in light produced. This measurement makes it possible to determine the inhibitory activity of the compounds according to the invention.
(§2) Determination of the Kdapp:
(§3) In this study, a constant is determined which represents the affinity of the molecule for the receptor. Since this value can fluctuate depending on the basal activity and the expression of the receptor, it is referred to as the Kdapparent (KdApp).
(§4) To determine this constant, “crossed curves” of the test product against a reference agonist, 4-[2-(5,5,8,8-tetramethyl-5,6,7,8-tetrahydro-2-naphthyl)propenyl]benzoic acid, are performed in 96-well plates. The test product is used at 10 concentrations and the reference agonist at 7 concentrations. In each well, the cells are in contact with a concentration of the test product and a concentration of the reference agonist, 4-[2-(5,5,8,8-tetramethyl-5,6,7,8-tetrahydro-2-naphthyl)propenyl]benzoic acid. Measurements are also taken for the total agonist (4-[2-(5,5,8,8-tetramethyl-5,6,7,8-tetrahydro-2-naphthyl)propenyl]benzoic acid) and inverse agonist, 4-{(E)-3-[4-(4-tert-butylphenyl)-5,5,8,8-tetramethyl-5,6,7,8-tetrahydro-2-naphthyl]-3-oxopropenyl}benzoic acid, controls.
(§5) These crossed curves make it possible to determine the AC50 values (concentration at which 50% activation is observed) for the reference ligand at various concentrations of test product. These AC50 values are used to calculate the Schild regression by plotting a straight line corresponding to the Schild equation (“quantitation in receptor pharmacology” Terry P. Kenakin, Receptors and Channels, 2001, 7, 371-385).
(§6) In the case of an antagonist, an IC50 value (concentration that inhibits 50% of the activity) is calculated by plotting the curve of the product at the concentration of the reference ligand that gives 80% activation.
(§7) The HeLa cell lines used are stable transfectants containing the plasmids ERE-βGlob-Luc-SV-Neo (reporter gene) and RAR (α, β, γ) ER-DBD-puro. These cells are inoculated into 96-well plates at a rate of 10 000 cells per well in 100 μl of DMEM medium without phenol red, and supplemented with 10% defatted calf serum. The plates are then incubated at 37° C. and 7% CO2 for 4 hours.
(§8) The various dilutions of the test products, of the reference ligand (4-[2-(5,5,8,8-tetramethyl-5,6,7,8-tetrahydro-2-naphthyl)propenyl]benzoic acid), of the 100% control (100 nM 4-[2-(5,5,8,8-tetramethyl-5,6,7,8-tetrahydro-2-naphthyl)propenyl]benzoic acid) and of the 0% control (500 nM 4-{(E)-3-[4-(4-tert-butylphenyl)-5,5,8,8-tetramethyl-5,6,7,8-tetrahydro-2-naphthyl]-3-oxopropenyl}benzoic acid) are added at a rate of 5 μl per well. The plates are then incubated for 18 hours at 37° C. and 7% CO2.
(§9) The culture medium is removed by turning over and 100 μl of a 1:1 PBS/luciferine mixture is added to each well. After 5 minutes, the plates are read using the luminescence detector.

[2] = target: T2, RAR alpha (Homo sapiens, UniProt P10276); experiment: Transactivation test (luciferase reporter, HeLa cells), RAR alpha; conditions: HeLa stable transfectants; for Kd: Schild regression against reference agonist 4-[2-(5,5,8,8-tetramethyl-5,6,7,8-tetrahydro-2-naphthyl)propenyl]benzoic acid, read-out: RAR alpha Kdapp; for IC50: reference ligand at the concentration that gives 80% activation
T2 sequence (P10276 183-417 limits assumed): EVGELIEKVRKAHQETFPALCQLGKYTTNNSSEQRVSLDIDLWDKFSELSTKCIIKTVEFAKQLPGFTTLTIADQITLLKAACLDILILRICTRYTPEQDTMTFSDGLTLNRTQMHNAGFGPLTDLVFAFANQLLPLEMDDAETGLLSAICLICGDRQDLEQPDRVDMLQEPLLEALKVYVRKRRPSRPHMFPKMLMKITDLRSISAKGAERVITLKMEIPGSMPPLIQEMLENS
Description: as §1, §2, §3, §4, §5, §6, §7, §8, §9

[3] = target: T3, RAR gamma (Homo sapiens, UniProt P13631); experiment: Transactivation test (luciferase reporter, HeLa cells), RAR gamma; conditions: HeLa stable transfectants; for Kd: Schild regression against reference agonist 4-[2-(5,5,8,8-tetramethyl-5,6,7,8-tetrahydro-2-naphthyl)propenyl]benzoic acid, read-out: RAR gamma Kdapp; for IC50: reference ligand at the concentration that gives 80% activation
T3 sequence (P13631 185-419 limits assumed): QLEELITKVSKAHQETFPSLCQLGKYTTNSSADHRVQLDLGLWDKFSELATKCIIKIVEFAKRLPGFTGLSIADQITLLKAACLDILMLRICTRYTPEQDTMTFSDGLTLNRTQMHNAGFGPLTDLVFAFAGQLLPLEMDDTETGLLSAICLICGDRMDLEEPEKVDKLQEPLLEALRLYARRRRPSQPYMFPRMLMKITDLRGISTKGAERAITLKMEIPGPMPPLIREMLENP
Description: as §1, §2, §3, §4, §5, §6, §7, §8, §9

Row | Structure (SMILES) | Kd [1] | IC50 [1] | Kd [2] | IC50 [2] | Kd [3] | IC50 [3]
1 | CC(C)(C)c1ccc(COc2cc([Se]C#Cc3ccc(C(=O)O)cc3)cc3c2C(C)(C)CCC3(C)C)cc1 [Ex 3, 4-[4-(4-tert-butylbenzyloxy)-5,5,8,8-tetramethyl-5,6,7,8-tetrahydro-2-naphthylselanylethynyl]benzoic acid] | 30 nM | 48 nM | 15 nM | 26.3 nM | 4 nM | 10 nM
2 | CC1(C)CCC(C)(C)c2c(OCc3ccc(F)cc3)cc([Se]C#Cc3ccc(C(=O)O)cc3)cc21 [Ex 11, 4-[5,5,8,8-tetramethyl-4-(4-fluorobenzyloxy)-5,6,7,8-tetrahydro-2-naphthylselanylethynyl]benzoic acid] | 4 nM | 6.4 nM | 8 nM | 14 nM | 1 nM | 2.5 nM
3 | CC1(C)CCC(C)(C)c2c(OCc3ccc(F)c(F)c3)cc([Se]C#Cc3ccc(C(=O)O)cc3)cc21 [Ex 4, 4-[4-(3,4-difluorobenzyloxy)-5,5,8,8-tetramethyl-5,6,7,8-tetrahydro-2-naphthylselanylethynyl]benzoic acid] | 4 nM | 6.4 nM | 2 nM | 3.5 nM | 1 nM | 2.5 nM
4 | CC1(C)CCC(C)(C)c2c(OCc3cccc(F)c3)cc([Se]C#Cc3ccc(C(=O)O)cc3)cc21 [Ex 1, 4-[4-(3-fluorobenzyloxy)-5,5,8,8-tetramethyl-5,6,7,8-tetrahydro-2-naphthylselanylethynyl]benzoic acid] | 4 nM | 6.5 nM | 8 nM | 14 nM | 2 nM | 5 nM
5 | Cc1cccc(COc2cc([Se]C#Cc3ccc(C(=O)O)cc3)cc3c2C(C)(C)CCC3(C)C)c1 [Ex 10, 4-[5,5,8,8-tetramethyl-4-(3-methylbenzyloxy)-5,6,7,8-tetrahydro-2-naphthylselanylethynyl]benzoic acid] | 15 nM | 24 nM | 30 nM | 52.5 nM | 4 nM | 10 nM
6 | CC1(C)CCC(C)(C)c2c(OCc3ccc(F)cc3F)cc([Se]C#Cc3ccc(C(=O)O)cc3)cc21 [Ex 5, 4-[4-(2,4-difluorobenzyloxy)-5,5,8,8-tetramethyl-5,6,7,8-tetrahydro-2-naphthylselanylethynyl]benzoic acid] | 1 nM | 1.6 nM | 2 nM | 3.5 nM | 1 nM | 2.5 nM
